Tested on: P493-6 (myc "on") cells
Assay: Cell proliferation assay
Format: cell-based
Conditions: P493-6, 72 h, read-out: Cell prolif P493 72 h IC50
Description: P493-6 (myc “on”) cells were maintained in growth media (RPMI-1640, 10% FBS, 2 mM glutamine, 100 units/ml Penicillin and 100 μg/ml streptomycin) at 37° C. with 5% CO2. For compound assay, P493-6 cells were plated in 96-well V-bottom plates on the day of compound addition in 50 μl of growth media at a cell density of 200,000 cells/ml (10,000 cells/well). Compounds were serially diluted in 100% DMSO at 200-times the final concentration. Compounds were diluted 100-fold into growth media and then 50 μl of this mixture was added to cell plates making the final concentration of DMSO 0.5%. Cells were incubated with compound for 72 hrs at 37° C. with 5% CO2 and analyzed for antiproliferative effects either by Cell Titer Glo (Promega) or FACS analysis using the Viacount (Millipore) kit on the Guava instrument.

| Compound | IC50 |
| --- | --- |
| CC(C)(C)OC(=O)n1cnc(CC(=O)Nc2nnc(CCCCc3ccc(NC(=O)Cc4cccc(OC(F)(F)F)c4)nn3)s2)c1 [Compound 696] | 0.034 µM |
| COc1ccc(CC(=O)Nc2ccc(CCCCc3nnc(NC(=O)Cc4ccccn4)s3)nn2)cc1OC(F)(F)F [Compound 722] | 0.016 µM |
| O=C(Cc1cccc(OC(F)(F)F)c1)Nc1ccc(CCCCc2nnc(NC(=O)Cc3ccc(Cl)nc3)s2)nn1 [Compound 683] | 0.024 µM |
| O=C(Cc1cc(OC(F)(F)F)ccc1O)Nc1ccc(CCCCc2nnc(NC(=O)Cc3ccccn3)s2)nn1 [Compound 718] | 0.015 µM |
| O=C(Cc1cc(OC(F)(F)F)ccc1F)Nc1ccc(CCCCc2nnc(NC(=O)Cc3ccccn3)s2)nn1 [Compound 720] | 0.92 µM |
| O=C(Cc1ccc(OC(F)(F)F)cc1)Nc1ccc(CCCCc2nnc(NC(=O)Cc3ccccc3)s2)nn1 [Compound 615] | 0.12 µM |
| COCCC(C(=O)Nc1nnc(CCCCc2ccc(NC(=O)Cc3cccc(OC(F)(F)F)c3)nn2)s1)c1cccnc1 (stereo not drawn) [Compound 684] | 0.042 µM |
| CCCC(=O)OCN(C(=O)Cc1ccccc1)c1nnc(CCCCc2ccc(NC(=O)Cc3cccc(OC(F)(F)F)c3)nn2)s1 [Compound 629] | 0.065 µM |
| Cc1cc(C)n(CC(=O)Nc2nnc(CCCCc3ccc(NC(=O)Cc4cccc(OC(F)(F)F)c4)nn3)s2)n1 [Compound 701] | 0.11 µM |
| Cc1n[nH]c(C)c1CC(=O)Nc1nnc(CCCCc2ccc(NC(=O)Cc3cccc(OC(F)(F)F)c3)nn2)s1 [Compound 695] | 0.03 µM |
| Cc1nc(CC(=O)Nc2nnc(CCCCc3ccc(NC(=O)Cc4cccc(OC(F)(F)F)c4)nn3)s2)c(C)s1 [Compound 688] | 0.012 µM |
| Nc1ccc(CCCCc2nnc(NC(=O)Cc3ccccn3)s2)nn1 [Compound 706] | 14 µM |
| O=C(Cc1cccc(OC(F)(F)F)c1)Nc1ccc(CCCCc2nnc(NC(=O)Cc3cccnc3)s2)nn1 [Compound 671] | 0.035 µM |
| O=C(Cc1ccc(O)c(OC(F)(F)F)c1)Nc1ccc(CCCCc2nnc(NC(=O)Cc3ccccn3)s2)nn1 [Compound 723] | 0.02 µM |
| O=C(Cc1cccc(OC(F)(F)F)c1)Nc1ccc(CCCCc2nnc(NC(=O)Cn3c(CN4CCOCC4)nc4ccccc43)s2)nn1 [Compound 702] | 0.31 µM |
| O=C(Cc1cccc(OC(F)(F)F)c1)Nc1ccc(CCCCc2nnc(NC(=O)Cc3cc(F)cc(F)c3)s2)nn1 [Compound 662] | 0.055 µM |
| O=C(Cc1cccc(OC(F)(F)F)c1)Nc1ccc(CCCCc2nnc(NC(=O)Cc3cccc(OC(F)F)c3)s2)nn1 [Compound 668] | 0.026 µM |
| O=C(Cc1cccc(OC(F)(F)F)c1)Nc1ccc(CCCCc2nnc(NC(=O)Cc3cccc[n+]3[O-])s2)nn1 [Compound 716] | 0.18 µM |
| COc1cccc(CC(=O)Nc2nnc(CCCCc3ccc(NC(=O)Cc4cccc(OC(F)(F)F)c4)nn3)s2)c1 [Compound 658] | 0.04 µM |
| CC(C)(C)OC(=O)Nc1cccc(CC(=O)Nc2nnc(CCCCc3ccc(NC(=O)Cc4cccc(OC(F)(F)F)c4)nn3)s2)n1 [Compound 724] | 0.034 µM |
| COc1ccc(OC(F)(F)F)cc1CC(=O)Nc1ccc(CCCCc2nnc(NC(=O)Cc3ccccn3)s2)nn1 [Compound 717] | 0.19 µM |
| CSc1cccc(CC(=O)Nc2nnc(CCCCc3ccc(NC(=O)Cc4cccc(OC(F)(F)F)c4)nn3)s2)c1 [Compound 674] | 0.024 µM |
| Cc1c(CC(=O)Nc2nnc(CCCCc3ccc(NC(=O)Cc4cccc(OC(F)(F)F)c4)nn3)s2)cnn1C [Compound 686] | 0.01 µM |
| O=C(Cc1cccc(OC(F)(F)F)c1)Nc1ccc(CCCCc2nnc(NC(=O)Cc3cncnc3)s2)nn1 [Compound 675] | 0.04 µM |
| Cn1ccc(CC(=O)Nc2nnc(CCCCc3ccc(NC(=O)Cc4cccc(OC(F)(F)F)c4)nn3)s2)n1 [Compound 687] | 0.011 µM |
| O=C(Cc1cccc(OC(F)(F)F)c1)Nc1ccc(CCCCc2nnc(NC(=O)Cc3ccc(F)cc3)s2)nn1 [Compound 661] | 0.12 µM |
| O=C(Cc1cccc(OC(F)(F)F)c1)Nc1ccc(CCCCc2nnc(NC(=O)Cc3cccc(Cl)c3)s2)nn1 [Compound 680] | 0.033 µM |

From patent US10793535B2, “Heterocyclic glutaminase inhibitors” (Calithera Biosciences, Inc., priority 2012, dated 2020)
